Experimental data as given in PMC6110851, “An Optimized MicroPET Imaging Method for the Distribution and Synergies of Natural Products” (Frontiers in Pharmacology, 2018).

What was measured:
[1] = tested on: NF-κB; experiment: NF-κB dual luciferase reporter assay in TNF-stimulated HEK 293 T cells; assay type: cell-based; conditions: 10 μmol/L, HEK 293T stimulated by TNF-α, P < 0.05
Method: The separation process was repeated five times for use in the activity tests. […] After 48 h, radioactive elements had decayed, the residues were stored at 4°C for anti-inflammatory activity tests ([Dong et al., 2013]; [Qingxin et al., 2016]).
HEK 293 T cells were cultured in standard Dulbecco’s modified Eagle’s medium (DMEM; Hyclone) supplemented with 10% fetal bovine serum (FBS; Biological Industries). The cells were placed in 96-well plates at 37°C in an air-CO2 environment (95/5% v/v). Cells were grown to 80–90% confluence and incubated for 12 h in DMEM without FBS. Transfection (20 h) was performed according to the manufacturer’s instructions. HEK 293 T cells were pretreated with drugs 1 h prior to TNF-stimulation (5 ng/mL) for 6 h. Dex (10^-5mol/L) was used as a positive control for NF-κB inhibition. The NF-κB activity was assayed using dual luciferase reporter assay system (Promega) according to the manufacturer’s instructions ([Qingxin et al., 2016]). Antiinflammatory activity was calculated as the ratio of firefly luciferase activity to Renilla luciferase activity (internal control).

[2] = MicroPET biodistribution of [^18F]-GA in mice; assay type: in vivo
Method: The mice were grouped by weight and housed in cages of the climate control room (25°C), with a photoperiod 12:12-h. During feeding, mice were free to access food and water. Mice were fasted for 24 h before the experiment. The mice were anesthetized with 4% isoflurane while preparing for scanning ([Constantinescu et al., 2013b]; [Cui et al., 2017]). Eighteen healthy male Kunming mice, weighing 20 ± 2 g, were divided into three groups, which were control group, once-administered (OA) group and long-term administration (LA) group. In the OA group, 1 h before the administration of [^18F]-GA, the mice were orally treated with PG polysaccharides. In the LA group, the mice were orally given the PG polysaccharides for 7 days, but not before the administration of [^18F]-GA.
Rice received a tail vein injection (8.67 ± 2.14 MBq/μg) of [^18F]-GA and placed in the scanner bed and mouse-imaging room immediately ([Constantinescu et al., 2013b]; [O’Doherty et al., 2017]). Firstly, 2 h PET scanning was performed using an Inveon-dedicated PET scanner. The average delay between injection and starting of PET scanning was 3.5 min. Rice were maintained stable under 4% isoflurane anesthesia throughout scanning. The PET list-mode data were dynamically classified into 23 3D sinograms of span and three ring difference. After Fourier recombination, the data were reconstructed using a 2D ordered-subset expectation maximization algorithm. Random events were excluded before reconstruction. The response of detector is normalized using a component-based approach. All dynamic images were corrected for radioactive decay automatically. The PET images were reconstructed by a cone beam algorithm into 480 × 480 × 632 image arrays. After the reconstruction, images were spatially transformed to match the PET images ([Constantinescu et al., 2013a],[b]).
The reconstruction of the image was performed using the PMOD software (PMOD Technologies). The 3D volumes of interest (VOIs) were drawn manually of the following organs: brain, heart, liver, lungs, kidneys, cortical bone, and gallbladder. The organs were carefully identified and VOIs were drawn as irregular contours on high-resolution PET images obtained from each mouse ([Constantinescu et al., 2013b]; [Garg et al., 2017]). The size of each VOI was less than the actual size of each organ to minimize the effects of PET on adjacent organ spills. The VOIs drawing was verified by a second operator. The VOIs of cortical bone were generated by first using PET image to depict the entire femur bone ([Constantinescu et al., 2013b]). The VOI was transferred to a dynamic PET image and the mean time-activity curve (TAC) of the decay correction was extracted for each target organ ([Constantinescu et al., 2013b]).

passage of the blood brain barrier ([2]; mice, concluded from brain concentrations) | concentration in the brain of the mouse ([2]; results obtained from PET) | SMILES | NF-κB inhibitory effect [1]
 |  | C[C@@H]1C[C@H]2[C@@H]3CCC4=CC(=O)C=C[C@]4(C)[C@@]3(F)[C@@H](O)C[C@]2(C)[C@@]1(O)C(=O)CO [Dex, reference compound] | significant NF-κB inhibitory effects
could not pass the blood brain barrier | very low, almost undetectable | CC1(C)[C@@H](O)CC[C@]2(C)[C@H]3C(=O)C=C4[C@@H]5C[C@@](C)(C(=O)O)CC[C@]5(C)CC[C@@]4(C)[C@]3(C)CC[C@@H]12 [GA, Glycyrrhetic acid, reference compound] | 
